Consider 4 compounds from publication PMC7504817, “Phenylalanine Stereoisomers of CJ-15,208 and [D-Trp]CJ-15,208 Exhibit Distinctly Different Opioid Activity Profiles” (Molecules, 2020).

Series [1] deals with T1, rat KOR (Rattus norvegicus, UniProt P34975). Conditions: ratio Ki(MOR)/Ki(KOR).
The test system of series [2] is mouse DOR. Conditions: radioligand binding; ref [19]; cited from earlier work.
The test system of series [3] is C57BL/6J mice. Also noted: key to ED50 i.c.v. (symbol: not calculable) / ED50 p.o. (symbol: not calculable): ~: Maximum antinociception not achieved, precluding calculation of an ED50 value. Conditions: ref [19], cited from earlier work.
The target in series [4] is T1, rat KOR. The experiment in a line: biochemical.
Series [5] concerns the target T2, rat MOR (Rattus norvegicus, UniProt P33535).
T2 construct: expressed in transfected cells
The series can be described thus: Radioligand equilibrium competition binding, MOR. The settings on record: [3H]DAMGO; membranes from CHO cells expressing rat MOR; mean ± SEM, at least three experiments.

A short description of series [6]: Metabolic stability in mouse liver microsomes. The class given is in vitro ADME. Conditions: pH 7.4, 5 µM peptide, 0.25 mg/mL protein, with NADPH, 37 °C, read-out: t1/2 in mouse liver microsomes. How it is done:
The macrocyclic tetrapeptide (5 µM) in 1% acetonitrile was incubated with mouse liver microsomes (0.25 mg/mL protein, Xenotech, Lenexa, KS, USA) at 37 °C in the presence or absence of co-factor NADPH RapidStart System (1 mM, Xenotech) or NADPH solution (Sigma, St. Louis, MO, USA) in potassium phosphate buffer (50 mM, pH 7.4). Aliquots (100 µL) taken at 0, 5, 15, 30, 60 and 120 min were quenched with ice-cold acetonitrile (1 vol) containing internal standard ([D-NMeAla^2]CJ-15,208 [26], 5 µM) to precipitate the proteins. The lack of endogenous interference with the analysis of the stereoisomer or internal standard was confirmed by analyzing samples lacking the macrocyclic tetrapeptide.
Following centrifugation at 10,000× g rpm for 10 min, the supernatant (50 µL) was diluted with water (75 µL), stored overnight at −20 °C and analyzed by LC-MS/MS using methodology similar to that described for [D-Trp]CJ-15,208 [32]. Liquid chromatography was performed on a Hypersil BDS C8 column (50 mm × 2.1 mm, 3 µm) with a flow rate of 0.2 mL/min and an injection volume of 20 µL using an Acquity UPLC system (Waters, Milford, MA, USA). The peptides were separated using a gradient of aqueous acetonitrile containing 0.08% formic acid of 20% B (0–2 min), 20–50% B (2–3 min), 50–80% B (3–6 min), 80% B (6–7 min), 80–20% B (7–8 min) and 20% B (8–10 min).
ESI-MS/MS was performed on a Waters Quatro triple quadrupole instrument operating in the positive ion multiple reaction monitoring mode. Data acquisition was carried out with Mass Lynx 4.1 software with the following settings: capillary voltage, 2500 V; cone voltage, 30 V; source temperature, 100 °C; desolvation temperature, 250 °C; cone gas flow, 279 L/h; desolvation gas flow, 1157 L/h; LM 1 resolution, 14; HM 1 resolution, 14; ion energy 1, 1.0; MS/MS mode entrance, -1; MS/MS collision energy, 35 eV; MS/MS mode exit, 2; LM 2 resolution, 13.0; HM 2 resolution, 13.0; ion energy 2, 1.5; multiplier, 650; collision cell pressure, 1.63 × 10^−3 mbar; collision gas, argon. The transition m/z 578.2 ([M + H]^+) → 217.2 was monitored to determine the peak area counts of the stereoisomers, and m/z 566.2 ([M + H]^+) → 232.9 was monitored to determine the peak area counts of the internal standard (collision energy 22 eV) with the following settings: dwell time, 0.3 s; delay, 0.05 s.

Series [7] concerns C57BL/6J mice. The experiment in a line: 55 °C warm-water tail-withdrawal assay (antinociception). The class given is in vivo, mouse. Also noted: key to ED50 p.o. (symbol: not calculable): ~: Maximum antinociception not achieved, precluding calculation of an ED50 value. The settings on record: for antinociception at the highest oral dose tested: 30 mg/kg. As to the method:
For intracerebroventricular (i.c.v.) administration the macrocyclic tetrapeptides were dissolved in dimethyl sulfoxide (DMSO), followed by addition of sterile saline (0.9%) so that the final vehicle was 50% DMSO and 50% saline, and the i.c.v. injections performed as described previously. This concentration of DMSO was not observed to have antinociceptive or behavioral effects in previous use. For per os (p.o.) administration the macrocyclic tetrapeptides were administered in 10% Solutol in 0.9% saline. All solutions for animal administration were prepared fresh daily.
The 55 °C warm-water tail-withdrawal assay was performed in mice as previously described, with the latency of the mouse to withdraw its tail from the water taken as the endpoint (a cut-off time of 15 sec was used in this assay). Antinociception was calculated according to the following formula: % antinociception = 100 × (test latency − control latency)/(15 − control latency). Tail-withdrawal data points are the means of 8–16 mice, unless otherwise indicated, with SEM shown by error bars.
All dose-response lines were analyzed by regression, and ED50 (effective dose producing 50% antinociception) values and 95% confidence intervals (C.I.) determined using individual data points from graded dose-response curves with Prism 8.0 software (GraphPad, La Jolla, CA, USA). Percent antinociception was used to determine within group effects and to allow comparison to baseline latency in tail-withdrawal experiments. The statistical significance of differences between ED50 values was determined by evaluation of the ED50 value shift via nonlinear regression modeling with Prism software. Significant differences in behavioral data were analyzed by ANOVA (one-way or two-way with repeated measures (RM), as appropriate). Significant results were further analyzed with Sidak’s, Tukey’s, or Dunnett’s multiple comparison post hoc tests, as appropriate. Data for conditioned place preference experiments were analyzed by two-way RM ANOVA, with analyses examining the main effect of conditioned place preference phase (e.g., pre- or post-conditioning) and the interaction of drug pretreatment. Significant effects were further analyzed using Sidak’s HSD post hoc testing. All data are presented as mean ± SEM, with significance set at p < 0.05.

Series [8] deals with C57BL/6J mice. The experiment in a line: Opioid receptor involvement in antinociception (antagonist pretreatment, tail-withdrawal assay). The class given is in vivo, mouse. Conditions: i.c.v. (1, 3, 4, 5 at 10 nmol, 2 at 100 nmol); pretreatment with β-FNA, nor-BNI or naltrindole.
Series [9] has as its system C57BL/6J mice. Conditions: mouse, in vivo.
Series [10] relates to C57BL/6J mice. The series can be described thus: Acute antinociceptive tolerance (tail-withdrawal assay, dosing at 0 and 8 h). Conditions: i.c.v.; for Fold-Shift, Naïve ED50 vs. Second ED50: 0 h vs 8 h; for ED50 (95% C.I.) Pretreated Mice: 8 h after pretreatment with ED50 dose of the same compound, * significantly different from naïve; for acute antinociceptive tolerance: ED50 at 8 h vs 0 h; for Naïve ED50 (95% C.I.): naïve C57BL/6J mice, tail-withdrawal assay.

In series [11] the test system is C57BL/6J mice. Conditions: mouse, in vivo. This is another data set of the same source.
Series [12] concerns C57BL/6J mice. Conditions: mouse, in vivo. The source holds these as a separate data set.
Where [13] appears, read: i.c.v., C57BL/6J mice, antinociception at peak response.

Each structure is given as a SMILES string. Like-named read-outs stand apart in the source and are kept apart here.

T2 sequence (P33535 whole entry): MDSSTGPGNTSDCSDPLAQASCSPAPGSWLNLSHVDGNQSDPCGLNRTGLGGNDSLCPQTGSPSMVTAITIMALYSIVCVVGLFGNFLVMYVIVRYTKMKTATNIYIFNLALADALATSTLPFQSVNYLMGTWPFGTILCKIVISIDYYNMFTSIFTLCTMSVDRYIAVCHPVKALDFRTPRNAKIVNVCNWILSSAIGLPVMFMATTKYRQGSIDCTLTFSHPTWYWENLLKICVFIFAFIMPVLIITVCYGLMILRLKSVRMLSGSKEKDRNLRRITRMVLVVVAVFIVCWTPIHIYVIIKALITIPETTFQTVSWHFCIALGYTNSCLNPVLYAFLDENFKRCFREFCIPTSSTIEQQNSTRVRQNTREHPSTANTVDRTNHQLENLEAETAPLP
T1 sequence (P34975 whole entry): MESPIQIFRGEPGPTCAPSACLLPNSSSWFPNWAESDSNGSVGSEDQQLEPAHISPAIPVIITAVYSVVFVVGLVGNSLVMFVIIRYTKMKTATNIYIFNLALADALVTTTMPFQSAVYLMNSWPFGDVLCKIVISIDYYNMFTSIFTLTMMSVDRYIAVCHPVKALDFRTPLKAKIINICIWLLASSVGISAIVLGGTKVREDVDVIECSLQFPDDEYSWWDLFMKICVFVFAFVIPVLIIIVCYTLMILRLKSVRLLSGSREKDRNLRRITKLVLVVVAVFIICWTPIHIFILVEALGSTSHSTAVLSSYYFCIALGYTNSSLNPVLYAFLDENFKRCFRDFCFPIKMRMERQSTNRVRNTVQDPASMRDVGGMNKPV

Consider `O=C1N[C@H](Cc2c[nH]c3ccccc23)C(=O)N[C@@H](Cc2ccccc2)C(=O)N2CCC[C@@H]2C(=O)N[C@H]1Cc1ccccc1` [[D-Trp]CJ-15,208, cyclo[Phe-D-Pro-Phe-D-Trp]], for which the “Selectivity Ki (MOR) Ki (KOR)” value in series [1] is on record as 12. For the same compound, in series [2], the “affinity for DOR” value is “negligible affinity for DOR”. The “ED50 i.c.v. (symbol: not calculable)” value in series [3] (i.c.v., mice, [21]) is “~”. In series [3] (p.o., mice, [21]), the “ED50 p.o. (symbol: not calculable)” value is listed as “~”. Besides, the “antinociceptive activity” value in series [3] is given as “minimal antinociceptive activity”. In series [4], the Ki came to 0.0218 ± 0.0048 µM.

For the compound `O=C1N[C@@H](Cc2ccccc2)C(=O)N2CCC[C@@H]2C(=O)N[C@H](Cc2ccccc2)C(=O)N[C@H]1Cc1c[nH]c2ccccc12` (single isomer, unassigned) [Stereoisomer 2, cyclo[Phe-D-Pro-D-Phe-Trp]], affinity in series [5] was put at a Ki of 3920 ± 200 nM. In series [6], the half-life at 5 µM is 15 min. Moreover, the “antinociception at the highest dose tested” value in [7] (100 nmol, i.c.v.) is recorded as “approximately 70%”. The “antinociception at the highest oral dose tested” value in series [7] (p.o.) was 45–60%. For the same compound, in [7] (after i.c.v. administration), the “time of peak antinociception” value is listed as 30 min. Also, in series [7] (i.c.v. administration), the “duration of significant antinociception” value is given as 90 min. In addition, in series [7] (setting [13]), the “ED50 (and 95% C.I.) i.c.v.” value is recorded as 20.4 (10–58.7) nmol. For the same compound, the “ED50 p.o. (symbol: not calculable)” value in series [7] (p.o., C57BL/6J mice) is “~”. In series [8], the “Receptors Involved (in antinociception)” value was “KOR- and MOR-mediated antinociception”. Further, the “Selectivity Ki (MOR) Ki (KOR)” value in [1] turned out to be 11. For the same compound, the “effect on coordinated locomotor performance (rotarod) vs vehicle” value (from here on “effect … (rotarod) vs vehicle”) in series [9] was “lacked any significant effect”. For the same compound, in series [4], the affinity, expressed as Ki, was 0.362 ± 0.051 µM. For the same compound, in series [10], the “Fold-Shift, Naïve ED50 vs. Second ED50” value was 6.13 fold; the “ED50 (95% C.I.) Pretreated Mice” value is listed as 125 (89.9–224) nmol; the “acute antinociceptive tolerance” value is on record as “the increase was not statistically significant”; the “Naïve ED50 (95% C.I.)” value was 20.4 (10–58.7) nmol.

Regarding `O=C1N[C@H](Cc2c[nH]c3ccccc23)C(=O)N[C@H](Cc2ccccc2)C(=O)N2CCC[C@@H]2C(=O)N[C@H]1Cc1ccccc1` (single isomer, unassigned) [Stereoisomer 4, cyclo[D-Phe-D-Pro-Phe-D-Trp]], the inhibition constant Ki in series [5] was over 10000 nM. Further, the half-life at 5 µM in series [6] came out at 30 min. Further, in series [7] (p.o.), the “antinociception at the highest oral dose tested” value is reported as 45–60%. For the same compound, the “time of peak antinociception” value in series [7] (after i.c.v. administration) is recorded as 20 min. Also, the “duration of significant antinociception” value in [7] (i.c.v. administration) is listed as 45 min. Also, in [7] (setting [13]), the “ED50 (and 95% C.I.) i.c.v.” value was 2.39 (1.40–4.56) nmol. For the same compound, the “duration of significant antinociception” value in [7] (p.o. administration) is 30 to 40 min. In addition, the “ED50 p.o. (symbol: not calculable)” value in series [7] (p.o., C57BL/6J mice) is “~”. For the same compound, in [8], the “Receptors Involved (in antinociception)” value was “KOR- and DOR-mediated”. In addition, the “effect … (rotarod) vs vehicle” value in series [9] is reported as “limited impairment of performance”. Also, the “effect on respiration rate vs vehicle” value in series [11] was “significant decreases in respiration rates”. In series [4], this compound gave a Ki of over 10 µM. For the same compound, in series [10], the “Fold-Shift, Naïve ED50 vs. Second ED50” value is recorded as 0.54 fold; the “ED50 (95% C.I.) Pretreated Mice” value is given as 1.28 (0.96–1.66) nmol; the “acute antinociceptive tolerance” value is on record as “Neither stereoisomer 4 or 5 demonstrated any significant changes in the ED50 values”; the “Naïve ED50 (95% C.I.)” value is listed as 2.39 (1.40–4.56) nmol.

In [5], `O=C1N[C@H](Cc2ccccc2)C(=O)N2CCC[C@@H]2C(=O)N[C@H](Cc2ccccc2)C(=O)N[C@H]1Cc1c[nH]c2ccccc12` (single isomer, unassigned) [Stereoisomer 3, cyclo[D-Phe-D-Pro-D-Phe-Trp]] displayed an inhibition constant Ki of 7780 ± 410 nM. The half-life at 5 µM in series [6] stood at 6 min. The “time of peak antinociception” value in [7] (after i.c.v. administration) is 20 min. Besides, the “duration of significant antinociception” value in series [7] (i.c.v. administration) is listed as 45 min. Moreover, the “ED50 (and 95% C.I.) i.c.v.” value in [7] (setting [13]) is given as 1.00 (0.64–1.60) nmol. Besides, the “antinociceptive efficacy” value in series [7] (p.o.) is “full antinociception”. Further, in series [7] (p.o. administration), the “time of peak antinociception” value is 20 to 30 min. Also, the “ED50 (and 95% C.I.) p.o.” value in [7] (p.o., C57BL/6J mice, antinociception at peak response) is given as 4.12 (3.30–5.31) mg/kg. In addition, the “Receptors Involved (in antinociception)” value in [8] was “KOR- and DOR-mediated”. Also, the “Selectivity Ki (MOR) Ki (KOR)” value in [1] is given as 3. Moreover, in series [9], the “effect … (rotarod) vs vehicle” value was “lacked any significant effect”. The “effect on ambulation vs vehicle” value in series [11] is “elevated ambulations at several time-points”. Further, the “conditioned place preference or aversion” value in series [12] is reported as “no significant preference or aversion”. The Ki in series [4] amounted to 2.56 ± 0.48 µM. In series [10], the “Fold-Shift, Naïve ED50 vs. Second ED50” value is recorded as 5.19 fold; the “acute antinociceptive tolerance” value is on record as “greater acute antinociceptive tolerance than CJ-15,208”; the “Naïve ED50 (95% C.I.)” value was 1.00 (0.64–1.60) nmol.
